Results reported in US5703232A, “Process and solvate of 2-methyl-thieno-benzodiazepine” (Eli Lilly and Company, priority 1996, dated 1997).

Tests used:
[1] = stability of the anhydrous crystalline forms; type: physicochemical; settings: anhydrous crystalline form, suitability for commercial pharmaceutical formulations
rats [2] = assay: induction of catalepsy; type: in vivo; settings: compared with doses required to block conditioned avoidance response
rats [3] = assay: conditioned avoidance response in rats; type: in vivo
mice [4] = assay: apomorphine-induced climbing behavior in mice; type: in vivo
Text: (§1) The Form I olanzapine prepared by the process of this invention has useful central nervous system activity. […] For example, the anhydrous Form I compound has been assessed in a number of standard behavior tests predictive of antipsychotic activity. The claimed compound antagonised apomorphine-induced climbing behavior and hypothermia in mice. See Moore, N. A. et al Psychopharmacology 94 (2), 263-266 (1988).

5-HT2B receptor = 5-HT2B receptor activity
mice [5] = assay: apomorphine-induced hypothermia in mice; type: in vivo
Text: as §1

[6] = detection of radiolabelled compound in saliva; type: in vivo

Cc1cc2c(s1)Nc1ccccc1N=C2N1CCN(C)CC1 [anhydrous Form II olanzapine, 2-methyl-4-(4-methyl-1-piperazinyl)-10H-thieno[2,3-b][1,5]benzodiazepine]
stability of the polymorph [1]: metastable

Cc1cc2c(s1)Nc1ccccc1N=C2N1CCN(C)CC1 [anhydrous Form I olanzapine, 2-methyl-4-(4-methyl-1-piperazinyl)-10H-thieno[2,3-b][1,5]benzodiazepine]
induction of catalepsy (rats [2]): only at higher doses | stability of the polymorph [1]: stable | inhibition of conditioned avoidance response (rats [3]): inhibits | antagonism of apomorphine-induced climbing behavior (mice [4]): antagonised | 5-HT2B receptor activity (5-HT2B receptor): 5-HT2B receptor activity | antagonism of apomorphine-induced hypothermia (mice [5]): antagonised

Cc1cc2c(s1)Nc1ccccc1N=C2N1CCN(C)CC1 [2-methyl-4-(4-methyl-1-piperazinyl)-10H-thieno-[2,3-b][1,5]benzodiazepine]
detection in saliva [6]: can be detected in the saliva
